This is an account of results in US20250263650A1, “FUNGUS AND MICROBIAL AGENT FOR TREATING MERCURY CONTAMINATION, USE THEREOF, MERCURY REMOVAL METHOD, AND METHOD FOR I[…] CAPABLE OF TREATING MERCURY CONTAMINATION” (ZHEJIANG UNIVERSITY, priority 2021, published 2025).

For this data set, the system named is Zea mays L. seeds. As to the kind of experiment: Tolerance of Zea mays L. to methylmercury and divalent mercury (seed germination in soil). In kind it is in vivo. The protocol: Methylmercury was added to the soil, where five concentrations of 0 μg/kg, 2.5 μg/kg, 5 μg/kg, 7.5 μg/kg, and 10 μg/kg were set. Divalent mercury was added to the soil, where five concentrations of 0 mg/kg, 20 mg/kg, 30 mg/kg, 40 mg/kg, and 50 mg/kg were set. The soil was placed in a cultivation vessel (with a height of 14 cm and a diameter of 7 cm).
Seed disinfection and cultivation: Zea mays L. seeds were disinfected for 5 min in 1% sodium hypochlorite and then washed three times with sterile water (1 min each time), disinfected for 10 min with 15% H2O2 and then washed three times with sterile water (1 min each time), and then placed in a 2% water agar medium and vernalized overnight at 4° C. Then, the pretreated seeds were sown into the soil, and 10 P. purpureum seeds or 5 Zea mays L. seeds were sown in each vessel.

As for `[Hg+2]` [divalent mercury], the “germination rate of the Zea mays L. seeds” value (from here on “germination rate”) reads like this: (soil with 20 mg/kg divalent mercury) 100%; (soil with 30 mg/kg divalent mercury) 80%; (soil with 40 mg/kg divalent mercury) 60%.

`[CH3][Hg][Cl]` [methylmercury]: the “germination rate” value (soil with 2.5 μg/kg methylmercury) worked out at 100% and the “germination rate” value (soil with 10 μg/kg methylmercury) was found to be 80%.
